Laboratory results from PubChem BioAssay AID1259407 (Chemical Carcinogenesis Research Information System (CCRIS), 2018).
Activity calls are given as the source filed them. The rule behind the calls is not given here.

Test system: CCRIS mutagenicity, Ames/micronucleus/aberration tests
Experiment: CCRIS mutagenicity studies
Conditions: Test System: AMES SALMONELLA TYPHIMURIUM
[1] = Strain/Indicator: TA100, Metabolic Activation: NONE, Method: STANDARD PLATE

SMILES | mutagenic call (Strain/Indicator: TA97, Metabolic Activation: HAMSTER, LIVER, S-9, AROCLOR 1254 (10%), Method: PREINCUBATION) | mutagenic call (Strain/Indicator: TA97, Metabolic Activation: HAMSTER, LIVER, S-9, AROCLOR 1254 (30%), Method: PREINCUBATION) | mutagenic call (Strain/Indicator: TA97, Metabolic Activation: NONE, Method: PREINCUBATION) | mutagenic call (Strain/Indicator: TA97, Metabolic Activation: RAT, LIVER, S-9, AROCLOR 1254 (10 OR 30%), Method: PREINCUBATION) | mutagenic call (Strain/Indicator: TA98, Metabolic Activation: HAMSTER, LIVER, S-9, AROCLOR 1254 (10 OR 30%), Method: PREINCUBATION) | mutagenic call (Strain/Indicator: TA98, Metabolic Activation: NONE, Method: PREINCUBATION) | mutagenic call (Strain/Indicator: TA98, Metabolic Activation: RAT, LIVER, S-9, AROCLOR 1254 (10 OR 30%), Method: PREINCUBATION) | mutagenic call (Strain/Indicator: TA100, Metabolic Activation: HAMSTER, LIVER, S-9, AROCLOR 1254 (10 OR 30%), Method: PREINCUBATION) | mutagenic call (Strain/Indicator: TA100, Metabolic Activation: NONE, Method: PREINCUBATION) | mutagenic call (Strain/Indicator: TA100, Metabolic Activation: RAT, LIVER, S-9, AROCLOR 1254 (10 OR 30%), Method: PREINCUBATION) | mutagenic call (Strain/Indicator: TA1535, Metabolic Activation: HAMSTER, LIVER, S-9, AROCLOR 1254 (10 OR 30%), Method: PREINCUBATION) | mutagenic call (Strain/Indicator: TA1535, Metabolic Activation: NONE, Method: PREINCUBATION) | mutagenic call (Strain/Indicator: TA1535, Metabolic Activation: RAT, LIVER, S-9, AROCLOR 1254 (10 OR 30%), Method: PREINCUBATION) | mutagenic call (Strain/Indicator: TA98, Metabolic Activation: NONE, Method: STANDARD PLATE) | mutagenic call (Strain/Indicator: TA98, Metabolic Activation: RAT, LIVER, S-9, AROCLOR 1254, Method: STANDARD PLATE) | mutagenic call [1] | mutagenic call (Strain/Indicator: TA100, Metabolic Activation: RAT, LIVER, S-9, AROCLOR 1254, Method: STANDARD PLATE)
Cl[C@@H]1C2(Cl)C3C4[C@@H]5O[C@@H]5[C@H]5C3[C@@](Cl)(C2(Cl)Cl)[C@]1(Cl)[C@@H]45 (stereo partly drawn) | inactive; negative | active; positive | inactive; negative | inactive; negative | inactive; negative | inactive; negative | inactive; negative | inactive; negative | inactive; negative | inactive; negative | inactive; negative | inactive; negative | inactive; negative | – | – | – | –
O=C1c2ccccc2C([N+](=O)[O-])c2ccccc21 | – | – | – | – | – | – | – | – | – | – | – | – | – | inactive; negative | inactive; negative | inactive; negative | inactive; negative
c1cnc2c3c(ccc2c1)C1OC1CC3 (stereo not drawn) | – | – | – | – | – | – | – | – | – | – | – | – | – | – | – | inactive; negative | –
